Data on three molecules can be found in patent publication US20250145619A1, “KHK INHIBITOR, PREPARATION METHOD THEREFOR AND USE THEREOF” (YOUNGENE THERAPEUTICS CO., LTD, priority 2022, published 2025).

Bounds are passed on as bounds.

Sequence of KHK—C (P50053 whole entry): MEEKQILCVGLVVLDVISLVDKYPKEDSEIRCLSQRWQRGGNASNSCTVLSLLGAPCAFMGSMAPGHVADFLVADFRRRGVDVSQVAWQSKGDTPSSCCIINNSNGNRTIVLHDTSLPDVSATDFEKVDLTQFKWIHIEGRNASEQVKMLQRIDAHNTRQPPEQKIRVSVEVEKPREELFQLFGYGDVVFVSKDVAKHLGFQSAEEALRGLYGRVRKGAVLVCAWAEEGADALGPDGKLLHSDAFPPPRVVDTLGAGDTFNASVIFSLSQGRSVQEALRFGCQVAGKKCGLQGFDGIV

The assay deals with KHK—C (Homo sapiens (Human), UniProt P50053). In words: KHK—C ADP-Glo kinase inhibitory activity assay. It is filed as biochemical. The settings on record: 1 nM KHK—C, 200 μM D-Fructose, 100 μM ATP, ADP-Glo luminescence. From the text:
(KHK—C ADP-Glo Kinase Inhibitory Activity Assay)
Y=Bottom+(Top−Bottom)/(1+10^((LogIC50−X)×HillSlope)) • X: Log value of compound concentration • Y: Inhibition ratio (%)
[formula] • Negative control: DMSO
On the technique in general: ADP-Glo turns the ADP formed in a reaction into a luminescent signal.
The term IC50 denotes the concentration at which inhibition is half-maximal. A higher IC50 goes with a need for much substance. In the case of `CC(=O)N[C@@H]1CN(c2nc(N3CC4(CC(C(=O)O)C4)C3)c3c(n2)C(F)(F)CC3)[C@H]1C` [Example 28, 2-(2-((2S,3R)-3-acetamido-2-methylazetidine-1-yl)-7,7-difluoro-6,7-dihydro-5H-cyclopentadiene[d]pyrimidin-4-yl)-2-azaspiro[3.3]heptan-6-carboxylic acid], the 50% inhibitory concentration (IC50) is greater than 10000 nM.

The molecule `C[C@H]1CCN1c1nc(N2CC3(CN(CC(=O)O)C3)C2)cc(C(F)(F)F)c1C#N` [Example 15, (S)-2-(6-(5-cyano-6-(2-methylazetidine-1-yl)-4-(trifluoromethyl)pyridin-2-yl)-2,6-diazaspiro[3.3]heptan-2-yl)acetic acid] returned a 50% inhibitory concentration (IC50) of 212 nM. For `C[C@@H](C(=O)O)[C@H]1[C@@H]2CN(c3cc(C(F)(F)F)c(C#N)c(N4CC[C@@H]4C)n3)C[C@@H]21` [Example 18, (R)-2-((1R,5S,6R)-3-(5-cyano-6-((S)-2-methylazetidine-1-yl)-4-(trifluoromethyl)pyridin-2-yl)-3-azabicyclo[3.1.0]hexan-6-yl)propionic acid] the value was 100 nM.
